We go through four compounds from patent US7547696B2, “Aminoquinoline derivatives and their use as adenosine A3 ligands” (sanofi-aventis, priority 2003, dated 2009).

By melting point is commonly meant the temperature, or range, at which the solid turns liquid.

Counter-ions that a name gives are not always drawn.

In the case of `COc1ccc(C(=O)Nc2nc3ccc(NC=O)cc3c(NCc3cccs3)c2C#N)cc1` [Example 10, N-{3-Cyano-6-(formylamino)-4-[(2-thienylmethyl)amino]quinolin-2-yl]-4-methoxybenzamide], the melting point lay in the range of 223 to 226 °C.
With `COc1ccc(C(=O)Nc2nc3ccc(NS(=O)(=O)O)cc3c(NCc3ccccc3)c2C#N)cc1` (as salt: ammonium) [Example 11, {4-(Benzylamino)-3-cyano-2-[(4-methoxybenzoyl)amino]quinolin-6-yl}sulfamic acid] the figure was 220 to 222 °C.
For `COc1ccc(C(=O)Nc2nc3ccc(N)cc3c(NCc3ccccc3)c2C#N)cc1` [Example 7, N-[6-amino-4-(benzylamino)-3-cyanoquinolin-2-yl]-4-methoxybenzamide] the value was 228 to 230 °C; for `CNc1ccc2nc(NC(=O)c3ccc(OC)cc3)c(C#N)c(NCc3ccccc3)c2c1` [Example 9, N-{4-(benzylamino)-3-cyano-6-(methylamino)quinolin-2-yl}-4-methoxybenzamide], 237 to 240 °C.
